Measured values taken from publication PMC8429421, “Structural basis for the tryptophan sensitivity of TnaC-mediated ribosome stalling” (Nature Communications, 2021).

Target: T1, TnaC–ribosome complex (TnaC–70S) (Escherichia coli, UniProt P0AD89+P61175)
T1 construct: nascent 24-residue TnaC as peptidyl-tRNA(Pro) in E. coli 70S ribosome; L-Trp site formed by TnaC, uL22 Lys90 and 23S rRNA (Psi746, G748, A752, U2609); cell-free translation (PURExpress; RTS100 HY for cryo-EM)
Experiment: toeprinting of stalled ribosomes in reconstituted cell-free translation, hyperbolic fit; cryo-EM structure […] Å
Format: biochemical
Conditions: PURExpress lacking amino acids, other 19 amino acids 0.3 mM each, 37 °C, 30 min; arrest at codon 24; apparent functional value, not an equilibrium constant; read-out: [L-Trp]0.5

T1 sequence (P0AD89 whole entry, one chain of several): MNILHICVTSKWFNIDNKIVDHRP

With N[C@@H](Cc1c[nH]c2ccccc12)C(=O)O [L-Trp] the EC50 was 320 µM.
